From ChEMBL document CHEMBL1201862, “PubChem BioAssay data set” (2004)
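These data come from cells grown in 96-well plates and exposed to compound for 48 hours at five concentrations. Abbreviation: GI50, concentration required for 50% inhibition of growth.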 The source made the active and inactive calls. Cut-off read from the data, not from the text of the source: active = GI50 up to about 1.1 µM and inactive = higher.

Columns and labels:
Test in all cases: inhibition of tumour cell growth, NCI panel, 48 h
NCI-H226 = test system: NCI-H226
OVCAR-5 = test system: OVCAR-5
SW-620 = test system: SW-620
DU-145 = test system: DU-145
MOLT-4 = test system: MOLT-4
NCI-H23 = test system: NCI-H23
HOP-92 = test system: HOP-92
SNB-75 = test system: SNB-75
SF-295 = test system: SF-295
U-251 = test system: U-251
RXF 393 = test system: RXF 393
SNB-19 = test system: SNB-19
M14 = test system: M14
MDA-MB-435 = test system: MDA-MB-435
SK-MEL-28 = test system: SK-MEL-28
T47D = test system: T47D
BT-549 = test system: BT-549
MCF7 = test system: MCF7
Hs-578T = test system: Hs-578T

Structure (SMILES)	GI50 (NCI-H226)	GI50 (OVCAR-5)	GI50 (SW-620)	GI50 (DU-145)	GI50 (MOLT-4)	GI50 (NCI-H23)	GI50 (HOP-92)	GI50 (SNB-75)	GI50 (SF-295)	GI50 (U-251)	GI50 (RXF 393)	GI50 (SNB-19)	GI50 (M14)	GI50 (MDA-MB-435)	GI50 (SK-MEL-28)	GI50 (T47D)	GI50 (BT-549)	GI50 (MCF7)	GI50 (Hs-578T)
COC(=O)c1cc(O)nc(O)n1	> 100 µM (inactive)	> 100 µM (inactive)	> 100 µM (inactive)	> 100 µM (inactive)	> 100 µM (inactive)	> 100 µM (inactive)	> 100 µM (inactive)	> 100 µM (inactive)	> 100 µM (inactive)	> 100 µM (inactive)	> 100 µM (inactive)	> 100 µM (inactive)	> 100 µM (inactive)	> 100 µM (inactive)	> 100 µM (inactive)	> 100 µM (inactive)	> 100 µM (inactive)	–	–
O=C1Nc2ccccc2/C1=N/NC(=S)N1CCCCC1	1.37 µM (inactive)	4.05 µM (inactive)	0.681 µM (active)	1.91 µM (inactive)	0.354 µM (active)	1.39 µM (inactive)	2.25 µM (inactive)	1.52 µM (inactive)	0.256 µM (active)	0.678 µM (active)	0.0906 µM (active)	1.98 µM (inactive)	0.29 µM (active)	1.36 µM (inactive)	2.17 µM (inactive)	5.94 µM (inactive)	–	1.5 µM (inactive)	–
COC1(OC)C=CC2C1C1C=CC2C1(OC)OC (stereo not drawn)	> 100 µM (inactive)	> 100 µM (inactive)	> 100 µM (inactive)	> 100 µM (inactive)	> 100 µM (inactive)	> 100 µM (inactive)	> 100 µM (inactive)	> 100 µM (inactive)	> 100 µM (inactive)	> 100 µM (inactive)	> 100 µM (inactive)	> 100 µM (inactive)	> 100 µM (inactive)	> 100 µM (inactive)	> 100 µM (inactive)	> 100 µM (inactive)	–	> 100 µM (inactive)	> 100 µM (inactive)
O=C(O)CCC(NC(=O)c1ccc(Oc2nc3ccccc3nc2-c2ccccc2)cc1)C(=O)O (stereo not drawn)	> 100 µM (inactive)	> 100 µM (inactive)	> 100 µM (inactive)	> 100 µM (inactive)	> 100 µM (inactive)	> 100 µM (inactive)	> 100 µM (inactive)	> 100 µM (inactive)	> 100 µM (inactive)	> 100 µM (inactive)	> 100 µM (inactive)	> 100 µM (inactive)	> 100 µM (inactive)	> 100 µM (inactive)	> 100 µM (inactive)	> 100 µM (inactive)	–	> 100 µM (inactive)	–
O=C(CNc1c(Cl)cccc1Cl)NC1C=Cc2ccc(S(=O)(=O)Nc3c(Cl)cccc3Cl)cc2C1=O (stereo not drawn)	17.5 µM (inactive)	47.1 µM (inactive)	> 100 µM (inactive)	> 100 µM (inactive)	> 100 µM (inactive)	> 100 µM (inactive)	18.5 µM (inactive)	16.7 µM (inactive)	70.8 µM (inactive)	> 100 µM (inactive)	–	> 100 µM (inactive)	> 100 µM (inactive)	> 100 µM (inactive)	> 100 µM (inactive)	–	60.7 µM (inactive)	> 100 µM (inactive)	6.71 µM (inactive)
CN(C)CCOC1(Cc2ccc(Cl)cc2Cl)CCC(C(C)(C)C)CC1 (stereo not drawn)	–	2.78 µM (inactive)	1.51 µM (inactive)	–	1.86 µM (inactive)	2.5 µM (inactive)	–	1.67 µM (inactive)	1.65 µM (inactive)	1.46 µM (inactive)	–	1.75 µM (inactive)	1.79 µM (inactive)	1.54 µM (inactive)	1.65 µM (inactive)	–	1.63 µM (inactive)	2.01 µM (inactive)	1.97 µM (inactive)
O=C(Nc1ccc2[nH]c(C(=O)N3CC(CCl)c4c3cc([N+](=O)[O-])c3ccccc43)cc2c1)Nc1ccc2[nH]c(C(=O)N3CC(CCl)c4c3cc([N+](=O)[O-])c3ccccc43)cc2c1 (stereo not drawn)	> 100 µM (inactive)	> 100 µM (inactive)	–	> 100 µM (inactive)	–	> 100 µM (inactive)	> 100 µM (inactive)	> 100 µM (inactive)	> 100 µM (inactive)	> 100 µM (inactive)	–	> 100 µM (inactive)	31.3 µM (inactive)	> 100 µM (inactive)	> 100 µM (inactive)	> 100 µM (inactive)	> 100 µM (inactive)	> 100 µM (inactive)	–
C[C@@H]1C(=O)O[C@H]1[C@H](O)CO	–	> 100 µM (inactive)	> 100 µM (inactive)	> 100 µM (inactive)	34.1 µM (inactive)	> 100 µM (inactive)	63.1 µM (inactive)	> 100 µM (inactive)	> 100 µM (inactive)	> 100 µM (inactive)	> 100 µM (inactive)	> 100 µM (inactive)	> 100 µM (inactive)	> 100 µM (inactive)	> 100 µM (inactive)	> 100 µM (inactive)	> 100 µM (inactive)	> 100 µM (inactive)	–
N#Cc1nnc2ccccc2c1N	> 100 µM (inactive)	> 100 µM (inactive)	> 100 µM (inactive)	> 100 µM (inactive)	> 100 µM (inactive)	> 100 µM (inactive)	> 100 µM (inactive)	–	–	> 100 µM (inactive)	–	> 100 µM (inactive)	> 100 µM (inactive)	> 100 µM (inactive)	> 100 µM (inactive)	> 100 µM (inactive)	> 100 µM (inactive)	> 100 µM (inactive)	–
CCOC(CI)O[C@@H]1C=C[C@H](OC(C)=O)C1 (stereo partly drawn)	> 100 µM (inactive)	> 100 µM (inactive)	> 100 µM (inactive)	> 100 µM (inactive)	> 100 µM (inactive)	> 100 µM (inactive)	–	> 100 µM (inactive)	> 100 µM (inactive)	> 100 µM (inactive)	> 100 µM (inactive)	> 100 µM (inactive)	> 100 µM (inactive)	> 100 µM (inactive)	> 100 µM (inactive)	> 100 µM (inactive)	> 100 µM (inactive)	> 100 µM (inactive)	–
Cc1cn(C2C=CC(COP(=O)(OCC3=CC(=O)c4ccccc4C3=O)N(C)CCCCCl)O2)c(=O)[nH]c1=O (stereo not drawn)	10.3 µM (inactive)	12.1 µM (inactive)	5.13 µM (inactive)	1.57 µM (inactive)	0.15 µM (active)	2.39 µM (inactive)	0.074 µM (active)	1.55 µM (inactive)	2.59 µM (inactive)	5.38 µM (inactive)	2.5 µM (inactive)	12 µM (inactive)	1.18 µM (inactive)	1.94 µM (inactive)	5.15 µM (inactive)	2.09 µM (inactive)	–	6.98 µM (inactive)	3.9 µM (inactive)
NC(=S)NNC(=S)NC(=O)c1ccco1	> 10 µM (inactive)	> 10 µM (inactive)	> 10 µM (inactive)	> 10 µM (inactive)	> 10 µM (inactive)	> 10 µM (inactive)	> 10 µM (inactive)	> 10 µM (inactive)	–	> 10 µM (inactive)	> 10 µM (inactive)	> 10 µM (inactive)	> 10 µM (inactive)	> 10 µM (inactive)	> 10 µM (inactive)	> 10 µM (inactive)	–	–	> 10 µM (inactive)
CCOC(=O)C1OC(=O)CC1C1(C(=O)OCC)C=CC(=O)O1 (stereo not drawn)	> 100 µM (inactive)	> 100 µM (inactive)	> 100 µM (inactive)	> 100 µM (inactive)	> 100 µM (inactive)	> 100 µM (inactive)	> 100 µM (inactive)	> 100 µM (inactive)	> 100 µM (inactive)	93.8 µM (inactive)	> 100 µM (inactive)	> 100 µM (inactive)	> 100 µM (inactive)	–	> 100 µM (inactive)	–	> 100 µM (inactive)	> 100 µM (inactive)	–
CC1=C(C)C(=O)C2=C(OCCO2)C1=O	24.3 µM (inactive)	19.7 µM (inactive)	20.6 µM (inactive)	18.8 µM (inactive)	2.55 µM (inactive)	18.2 µM (inactive)	2.75 µM (inactive)	–	18.1 µM (inactive)	16.1 µM (inactive)	–	17.3 µM (inactive)	19.3 µM (inactive)	2.82 µM (inactive)	16.1 µM (inactive)	2.39 µM (inactive)	22.8 µM (inactive)	24.5 µM (inactive)	–
CC(=O)OCC1OC(c2nnc(C)o2)=CC(OC(C)=O)C1OC(C)=O (stereo not drawn)	> 100 µM (inactive)	> 100 µM (inactive)	> 100 µM (inactive)	> 100 µM (inactive)	> 100 µM (inactive)	> 100 µM (inactive)	–	> 100 µM (inactive)	> 100 µM (inactive)	> 100 µM (inactive)	> 100 µM (inactive)	> 100 µM (inactive)	–	> 100 µM (inactive)	> 100 µM (inactive)	–	> 100 µM (inactive)	> 100 µM (inactive)	> 100 µM (inactive)
O=C1CC2c3ccccc3CCC2c2ccccc21 (stereo not drawn)	12.1 µM (inactive)	24.4 µM (inactive)	26.5 µM (inactive)	57.8 µM (inactive)	32.3 µM (inactive)	20.2 µM (inactive)	–	38.2 µM (inactive)	17.6 µM (inactive)	34.8 µM (inactive)	–	15.1 µM (inactive)	15.7 µM (inactive)	19.3 µM (inactive)	36.1 µM (inactive)	42.9 µM (inactive)	–	24 µM (inactive)	12.4 µM (inactive)
CC(C)(C)N/C(N)=N/C#N	–	> 100 µM (inactive)	> 100 µM (inactive)	> 100 µM (inactive)	> 100 µM (inactive)	> 100 µM (inactive)	> 100 µM (inactive)	> 100 µM (inactive)	–	> 100 µM (inactive)	> 100 µM (inactive)	> 100 µM (inactive)	> 100 µM (inactive)	> 100 µM (inactive)	> 100 µM (inactive)	–	> 100 µM (inactive)	> 100 µM (inactive)	> 100 µM (inactive)
